Test results as given in patent US8148391B2 (Cephalon, Inc., priority 2006, dated 2012).
Where a name gives a salt, the structure may show the parent alone. Read-outs that look alike come from different tables or passages of the source.

Columns and labels:
[1] = molecular target: T1, c-Met (cytoplasmic domain) (Homo sapiens, UniProt P08581); experiment: c-Met Kinase Assay (same methods as for ALK, with modifications); type: biochemical
T1 construct: 10 ng/mL c-Met (cytoplasmic domain, Invitrogen Corporation #PV3143); purchased Invitrogen Corporation PV3143
T1 sequence (P08581 956-1390 limits assumed): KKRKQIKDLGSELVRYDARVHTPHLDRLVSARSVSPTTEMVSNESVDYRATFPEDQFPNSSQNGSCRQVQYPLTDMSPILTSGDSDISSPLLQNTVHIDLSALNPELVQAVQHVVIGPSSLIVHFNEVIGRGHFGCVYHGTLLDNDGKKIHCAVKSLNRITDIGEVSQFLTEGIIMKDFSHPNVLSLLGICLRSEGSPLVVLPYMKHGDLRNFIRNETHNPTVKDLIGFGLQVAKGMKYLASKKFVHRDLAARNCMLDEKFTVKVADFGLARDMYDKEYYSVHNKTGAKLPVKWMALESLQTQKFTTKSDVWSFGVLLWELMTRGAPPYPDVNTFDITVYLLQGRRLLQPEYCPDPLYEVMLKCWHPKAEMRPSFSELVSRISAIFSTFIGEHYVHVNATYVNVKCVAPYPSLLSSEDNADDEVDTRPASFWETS
How it was run: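 Plates were coated with phospholipase C-γ substrate (10 μg/mL) in TBS, and the reaction was started with 10 ng/mL c-Met cytoplasmic domain and run 15 min at 37 °C. Phosphoproduct was detected with Eu-N1-labelled PT66 antibody. IC50 came from a variable-slope sigmoidal fit of percent inhibition vs log concentration.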

[2] = molecular target: T2, baculovirus-expressed ALK (Homo sapiens, UniProt Q9UM73); experiment: ALK Kinase Assay (ELISA-type, time-resolved fluorescence); type: biochemical
T2 construct: host or cells: baculovirus expression system
T2 sequence (Q9UM73 19-1620): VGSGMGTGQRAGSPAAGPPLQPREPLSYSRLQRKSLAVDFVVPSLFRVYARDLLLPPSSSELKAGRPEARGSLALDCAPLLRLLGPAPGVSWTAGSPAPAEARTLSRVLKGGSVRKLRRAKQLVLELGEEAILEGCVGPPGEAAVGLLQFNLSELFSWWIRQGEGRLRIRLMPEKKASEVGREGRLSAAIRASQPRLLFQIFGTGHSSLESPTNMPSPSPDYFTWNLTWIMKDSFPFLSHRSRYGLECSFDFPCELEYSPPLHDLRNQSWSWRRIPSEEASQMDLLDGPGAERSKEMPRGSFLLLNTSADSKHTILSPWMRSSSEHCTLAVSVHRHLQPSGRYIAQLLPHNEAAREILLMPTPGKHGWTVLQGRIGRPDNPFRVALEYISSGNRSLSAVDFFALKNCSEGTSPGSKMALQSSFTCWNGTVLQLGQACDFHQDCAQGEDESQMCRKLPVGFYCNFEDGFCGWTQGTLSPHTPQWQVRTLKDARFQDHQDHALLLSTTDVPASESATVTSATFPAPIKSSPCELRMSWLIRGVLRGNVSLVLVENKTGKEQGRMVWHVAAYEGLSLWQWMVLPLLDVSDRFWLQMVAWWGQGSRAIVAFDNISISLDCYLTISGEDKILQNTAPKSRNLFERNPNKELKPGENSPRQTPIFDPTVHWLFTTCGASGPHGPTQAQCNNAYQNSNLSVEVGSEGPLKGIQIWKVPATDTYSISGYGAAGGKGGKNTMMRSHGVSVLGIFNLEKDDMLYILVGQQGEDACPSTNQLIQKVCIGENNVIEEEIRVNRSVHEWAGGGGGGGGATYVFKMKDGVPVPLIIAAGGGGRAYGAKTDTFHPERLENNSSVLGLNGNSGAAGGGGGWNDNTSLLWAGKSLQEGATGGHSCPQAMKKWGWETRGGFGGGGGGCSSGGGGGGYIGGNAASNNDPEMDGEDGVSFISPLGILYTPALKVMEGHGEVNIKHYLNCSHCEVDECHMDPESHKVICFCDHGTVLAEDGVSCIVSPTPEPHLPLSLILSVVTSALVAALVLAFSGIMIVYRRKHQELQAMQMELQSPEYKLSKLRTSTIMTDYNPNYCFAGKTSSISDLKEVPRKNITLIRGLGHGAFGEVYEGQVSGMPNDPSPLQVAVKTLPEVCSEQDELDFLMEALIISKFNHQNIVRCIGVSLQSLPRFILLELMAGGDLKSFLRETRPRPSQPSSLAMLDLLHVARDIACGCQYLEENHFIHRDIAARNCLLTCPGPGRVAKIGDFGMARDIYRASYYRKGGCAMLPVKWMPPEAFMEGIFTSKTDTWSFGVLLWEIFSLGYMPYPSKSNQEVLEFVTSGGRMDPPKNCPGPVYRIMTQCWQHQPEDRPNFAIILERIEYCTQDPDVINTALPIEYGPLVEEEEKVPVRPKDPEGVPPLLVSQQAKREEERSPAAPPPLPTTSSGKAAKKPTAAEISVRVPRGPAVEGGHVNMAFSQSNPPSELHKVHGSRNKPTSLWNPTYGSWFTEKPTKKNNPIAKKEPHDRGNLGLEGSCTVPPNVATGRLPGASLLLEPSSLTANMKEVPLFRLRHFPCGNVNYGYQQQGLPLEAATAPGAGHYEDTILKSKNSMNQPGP
How it was run: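 Plates coated with phospholipase C-γ substrate (10 μg/mL in TBS); reaction started with 30 ng/ml ALK and run 15 min at 37° C. Phosphorylated substrate detected with Eu-N1-labeled PT66 antibody. IC50 from sigmoidal variable-slope fit of percent inhibition vs log concentration.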

[3] = 1 μM ATP (Km level), read-out: cMet Activity (c-Met Kinase Inhibition, IC50)
[4] = 1 μM ATP (Km level), read-out: ALK Activity (ALK Kinase Inhibition, IC50)
[5] = c-Met kinase inhibition, 1 μM ATP (Km level), read-out: cMet Activity
[6] = ALK kinase inhibition, 1 μM ATP (Km level), read-out: ALK Activity
[7] = 1 μM ATP (Km level), 10 ng/mL c-Met, read-out: cMet Activity (c-Met kinase inhibition, IC50 class)
[8] = 1 μM ATP (Km level), 30 ng/ml ALK, 37° C., 15 minutes, read-out: ALK Activity (ALK kinase inhibition, IC50 class)
[9] = c-Met kinase inhibition, 1 μM ATP, read-out: cMet Activity
[10] = ALK kinase inhibition, 1 μM ATP, read-out: ALK Activity

Row | IC50 [1, 3] [µM] | IC50 [2, 4] [µM] | IC50 [1, 5] [µM] | IC50 [2, 6] [µM] | Compound | also measured
1 | > 10 | < 0.1 |  |  | COc1c(Nc2ncc(Cl)c(N[C@@H]3CCCC[C@H]3NS(C)(=O)=O)n2)ccc2c1CCCC(NCCO)C2 (stereo partly drawn) [Example 965, N-((1R,2R)-2-{5-Chloro-2-[6-(2-hydroxy-ethylamino)-1-methoxy-6,7,8,9-tetrahydro-5H-benzocyclohepten-2-ylamino]-pyrimidin-4-ylamino}-cyclohexyl)-methanesulfonamide] | 
2 |  |  | > 10 | 1 to 10 | CCN1C(=O)CCCc2c1ccc(Nc1ncc(Cl)c(N[C@@H]3[C@H](C(N)=O)[C@H]4C=C[C@@H]3C4)n1)c2OC [Example 132, (1R,2R,3S,4S)-3-[5-Chloro-2-(1-ethyl-6-methoxy-2-oxo-2,3,4,5-tetrahydro-1H-benzo[b]azepin-7-ylamino)-pyrimidin-4-ylamino]-bicyclo[2.2.1]hept-5-ene-2-carboxylic acid amide] | 
3 | > 10 | 0.1 to 1 |  |  | Cn1ccnc1-c1ccccc1Nc1nc(Nc2cccc3c2OCCCC3(C)C)ncc1Cl [Example 879, 5-Chloro-N*2*-(5,5-dimethyl-2,3,4,5-tetrahydro-benzo[b]oxepin-9-yl)-N*4*-[2-(1-methyl-1H-imidazol-2-yl)-phenyl]-pyrimidine-2,4-diamine] | 
4 |  |  |  |  | CNC(=O)c1ccccc1Nc1nc(Nc2c(OC)ccc3c2CCC(NCC(F)F)CC3)ncc1Cl (stereo not shown) [Example 1078, 2-{5-Chloro-2-[7-(2,2-difluoro-ethylamino)-2-methoxy-6,7,8,9-tetrahydro-5H-benzocyclohepten-1-ylamino]-pyrimidin-4-ylamino}-N-methyl-benzamide] | IC50 [1, 7]: > 10 µM; IC50 [2, 8]: 0.1 to 1 µM
5 |  |  |  |  | O=C1CCCc2ccc(Nc3ncc(Cl)c(Nc4c(F)cccc4OC4CCOC4)n3)cc2N1 (stereo not shown) [Example 1273, 8-{5-Chloro-4-[2-fluoro-6-(tetrahydro-furan-3-yloxy)-phenylamino]-pyrimidin-2-ylamino}-1,3,4,5-tetrahydro-1-benzazepin-2-one] | IC50 [1, 7]: 0.1 to 1 µM; IC50 [2, 8]: 0.1 to 1 µM
6 | > 10 | 0.1 to 1 |  |  | COc1c(Nc2ncc(Cl)c(N[C@H]3[C@@H](C(N)=O)[C@@H]4C=C[C@H]3C4)n2)ccc2c1C(=O)C[C@@H](NC(C)=O)CC2 [Example 632, (1S,2S,3R,4R)-3-[2-((S)-7-Acetylamino-1-methoxy-9-oxo-6,7,8,9-tetrahydro-5H-benzocyclohepten-2-ylamino)-5-chloro-pyrimidin-4-ylamino]-bicyclo[2.2.1]hept-5-ene-2-carboxylic acid amide] | 
7 |  |  |  |  | COc1cc2c(cc1Nc1ncc(Cl)c(Nc3ccc(N4CCOCC4)cc3OC)n1)CCN(CC(=O)N1CCOCC1)CC2 [Example 1526, 2-{7-[5-Chloro-4-(2-methoxy-4-morpholin-4-yl-phenylamino)-pyrimidin-2-ylamino]-8-methoxy-1,2,4,5-tetrahydro-3-benzazepin-3-yl}-1-morpholin-4-yl-ethanone] | IC50 [1, 9]: > 10 µM; IC50 [2, 10]: < 0.1 µM
8 |  |  | < 0.1 | < 0.1 | CNS(=O)(=O)c1ccccc1Nc1nc(Nc2ccc3c(c2)COCCN3C)ncc1Cl [Example 17, 2-[5-Chloro-2-(1-methyl-1,2,3,5-tetrahydro-benzo[e][1,4]oxazepin-7-ylamino)-pyrimidin-4-ylamino]-N-methyl-benzenesulfonamide] | 
9 |  |  | < 0.1 | < 0.1 | CNC(=O)c1ccccc1Nc1nc(Nc2ccc3c(c2)N(C)C(=O)CCC3)ncc1Cl [Example 108, 2-[5-Chloro-2-(1-methyl-2-oxo-2,3,4,5-tetrahydro-1H-benzo[b]azepin-8-ylamino)-pyrimidin-4-ylamino]-N-methyl-benzamide] | 
10 | > 10 | < 0.1 |  |  | COc1ccc(Nc2nc(Nc3cc4c(cc3OC)CN(CC3CC3)CC(=O)N4C)ncc2Cl)c(-n2cccn2)c1 [Example 748, 8-[5-Chloro-4-(4-methoxy-2-pyrazol-1-yl-phenylamino)-pyrimidin-2-ylamino]-cyclopropylmethyl-7-methoxy-1-methyl-1,3,4,5-tetrahydro-benzo[e][1,4]diazepin-2-one] | 
11 |  |  |  |  | COc1cc2c(cc1Nc1ncc(Cl)c(Nc3ccc(N4CCOCC4)cc3OC)n1)C(C)(C)CCC(=O)N2 [Example 1672, 7-[5-Chloro-4-(2-methoxy-4-morpholin-4-yl-phenylamino)-pyrimidin-2-ylamino]-8-methoxy-5,5-dimethyl-1,3,4,5-tetrahydro-benzo[b]azepin-2-one] | IC50 [1, 9]: > 10 µM; IC50 [2, 10]: 0.1 to 1 µM
12 |  |  | 0.1 to 1 | < 0.1 | CNC(=O)c1ccccc1Nc1nc(Nc2cc3c(cc2OC)CCN(CCOC)CC3)ncc1Cl [Example 241, 2-{5-Chloro-2-[8-methoxy-3-(2-methoxy-ethyl)-2,3,4,5-tetrahydro-1H-benzo[d]azepin-7-ylamino]-pyrimidin-4-ylamino}-N-methyl-benzamide] | 
13 |  |  | > 10 | < 0.1 | COc1cc2c(cc1Nc1ncc(Cl)c(N[C@@H]3[C@H](C(N)=O)[C@H]4C=C[C@@H]3C4)n1)CCN(CC(F)(F)F)CC2 (relative stereo) [Example 250, (2-exo, 3-exo)-3-{5-Chloro-2-[8-methoxy-3-(2,2,2-trifluoro-ethyl)-2,3,4,5-tetrahydro-1H-benzo[d]azepin-7-ylamino]-pyrimidin-4-ylamino}-bicyclo[2.2.1]hept-5-ene-2-carboxylic acid amide hydrochloride] | 
14 | > 10 | < 0.1 |  |  | CCN1C(=O)CCCc2c1ccc(Nc1ncc(Cl)c(N[C@H]3[C@@H](C(=O)NC)[C@@H]4C=C[C@H]3C4)n1)c2OC (relative stereo) [Example 601, (2-exo-3-exo)-3-[5-Chloro-2-(1-ethyl-6-methoxy-2-oxo-2,3,4,5-tetrahydro-1H-benzo[b]azepin-7-ylamino)-pyrimidin-4-ylamino]-bicyclo[2.2.1]hept-5-ene-2-carboxylic acid methylamide] | 
15 |  |  |  |  | CCN1C(=O)[C@H](N2CCOCC2)CCc2c1ccc(Nc1ncc(Cl)c(N[C@H]3[C@@H](C(N)=O)[C@@H]4C=C[C@H]3C4)n1)c2OC (single isomer, unassigned) [Example 1344] | IC50 [1, 7]: > 10 µM; IC50 [2, 8]: < 0.1 µM
16 |  |  |  |  | CCNC(=O)c1ccccc1Nc1nc(Nc2cc3c(cc2OC)CN(Cc2ccccc2)CC(=O)N3)ncc1Cl [Example 1653, 2-[2-(4-Benzyl-7-methoxy-2-oxo-2,3,4,5-tetrahydro-1H-benzo[e][1,4]diazepin-8-ylamino)-5-chloro-pyrimidin-4-ylamino]-N-ethyl-benzamide] | IC50 [1, 9]: 1 to 10 µM; IC50 [2, 10]: < 0.1 µM
17 | 1 to 10 | < 0.1 |  |  | COc1ccc(Nc2nc(Nc3ccc4c(c3)CCC(N3CCOCC3)CC4)ncc2Cl)c(-n2cccn2)c1 (stereo not shown) [Example 622, 5-Chloro-N*4*-(4-methoxy-2-pyrazol-1-yl-phenyl)-N*2*-(7-morpholin-4-yl-6,7,8,9-tetrahydro-5H-benzocyclohepten-2-yl)-pyrimidine-2,4-diamine] | 
18 |  |  |  |  | COc1cc(N2CCOCC2)ccc1Nc1nc(Nc2cc(F)cc3c2OCCNC3=O)ncc1Cl [Example 1684, 9-[5-Chloro-4-(2-methoxy-4-morpholin-4-yl-phenylamino)-pyrimidin-2-ylamino]-7-fluoro-3,4-dihydro-2H-benzo[f][1,4]oxazepin-5-one] | IC50 [1, 9]: > 10 µM; IC50 [2, 10]: < 0.1 µM
19 | 1 to 10 | < 0.1 |  |  | COCCN1CCSc2ccc(Nc3ncc(Cl)c(N[C@@H]4CCCC[C@H]4NS(C)(=O)=O)n3)cc2C1 [Example 521, N-((1R,2R)-2-{5-Chloro-2-[8-(2-methoxy-ethyl)-6,7,8,9-tetrahydro-5-thia-8-aza-benzocyclohepten-2-ylamino]pyrimidin-4-ylamino}-cyclohexyl)-methanesulfonamide] | 
20 |  |  | < 0.1 | < 0.1 | CNC(=O)c1ccccc1Nc1nc(Nc2ccc3c(c2)CCN(C(=O)N(C)C)CC3)ncc1Cl [Example 327, 7-[5-Chloro-4-(2-methylcarbamoyl-phenylamino)-pyrimidin-2-ylamino]-1,2,4,5-tetrahydro-benzo[d]azepine-3-carboxylic acid dimethylamide] | 
21 |  |  |  |  | CNC(=O)c1scc(C)c1Nc1nc(Nc2ccc3c(c2)CC(=O)NCC3)ncc1Cl [Example 1812, 3-[5-Chloro-2-(4-oxo-2,3,4,5-tetrahydro-1H-benzo[d]azepin-7-ylamino)-pyrimidin-4-ylamino]-4-methyl-thiophene-2-carboxylic acid methylamide] | IC50 [1, 9]: < 0.1 µM; IC50 [2, 10]: < 0.1 µM

Row | Compound | IC50 [1, 3] [µM] | IC50 [2, 4] [µM] | IC50 [1, 5] [µM] | IC50 [2, 6] [µM] | also measured
22 | 2-{5-Chloro-2-[1-methoxy-7-(4-methyl-piperazin-1-yl)-6,7,8,9-tetrahydro-5H-benzocyclohepten-2-ylamino]-pyrimidin-4-ylamino}-N,N-dimethyl-benzenesulfonamide [Example 912] | > 10 | < 0.1 |  |  | 
23 | CC(=O)N1CC2CCC(C1)c1cc(Nc3ncc(Cl)c(N[C@@H]4CCCC[C@H]4NS(C)(=O)=O)n3)ccc12 (stereo partly drawn) [Example 295, N-{(1R,2R)-2-[2-(10-Acetyl-10-aza-tricyclo[6.3.2.0*2,7*]trideca-2,4,6-trien-4-ylamino)-5-chloro-pyrimidin-4-ylamino]-cyclohexyl}-methanesulfonamide] |  |  | 0.1 to 1 | < 0.1 | 
